According to PubChem BioAssay (NCI):
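GI50 marks 50% less growth. At the TGI there is no net growth.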

Tests used:
Assay in all cases: DTP human tumour cell line panel, 384-well format
786-0 renal = tested on: 786-0 renal
A498 renal = tested on: A498 renal
A549 NSCLC = tested on: A549 NSCLC
ACHN renal = tested on: ACHN renal
BT-549 breast = tested on: BT-549 breast
CAKI-1 renal = tested on: CAKI-1 renal
CCRF-CEM leukemia = tested on: CCRF-CEM leukemia
COLO 205 colon = tested on: COLO 205 colon
DU-145 prostate = tested on: DU-145 prostate
EKVX NSCLC = tested on: EKVX NSCLC
HCC-2998 colon = tested on: HCC-2998 colon
HCT-116 colon = tested on: HCT-116 colon
HCT-15 colon = tested on: HCT-15 colon
HL-60(TB) leukemia = tested on: HL-60(TB) leukemia
HOP-62 NSCLC = tested on: HOP-62 NSCLC
HOP-92 NSCLC = tested on: HOP-92 NSCLC
HS 578T breast = tested on: HS 578T breast
HT29 colon = tested on: HT29 colon
IGROV1 ovarian = tested on: IGROV1 ovarian
K-562 leukemia = tested on: K-562 leukemia
KM12 colon = tested on: KM12 colon
LOX IMVI melanoma = tested on: LOX IMVI melanoma
M14 melanoma = tested on: M14 melanoma
MALME-3M melanoma = tested on: MALME-3M melanoma
MCF7 breast = tested on: MCF7 breast
MDA-MB-435 melanoma = tested on: MDA-MB-435 melanoma
MDA-MB-468 breast = tested on: MDA-MB-468 breast
MOLT-4 leukemia = tested on: MOLT-4 leukemia
NCI-H226 lung = tested on: NCI-H226 lung
NCI-H23 lung = tested on: NCI-H23 lung
NCI-H322M lung = tested on: NCI-H322M lung
NCI-H460 NSCLC = tested on: NCI-H460 NSCLC
NCI-H522 lung = tested on: NCI-H522 lung
NCI/ADR-RES ovarian = tested on: NCI/ADR-RES ovarian
OVCAR-3 ovarian = tested on: OVCAR-3 ovarian
OVCAR-4 ovarian = tested on: OVCAR-4 ovarian
OVCAR-8 ovarian = tested on: OVCAR-8 ovarian
PC-3 prostate = tested on: PC-3 prostate
RPMI-8226 leukemia = tested on: RPMI-8226 leukemia
RXF 393 renal = tested on: RXF 393 renal
SF-268 CNS = tested on: SF-268 CNS
SF-295 CNS = tested on: SF-295 CNS
SF-539 CNS = tested on: SF-539 CNS
SK-MEL-2 melanoma = tested on: SK-MEL-2 melanoma
SK-MEL-28 melanoma = tested on: SK-MEL-28 melanoma
SK-MEL-5 melanoma = tested on: SK-MEL-5 melanoma
SK-OV-3 ovarian = tested on: SK-OV-3 ovarian
SN12C renal = tested on: SN12C renal
SNB-19 CNS = tested on: SNB-19 CNS
SNB-75 CNS = tested on: SNB-75 CNS
SW-620 colon = tested on: SW-620 colon
TK-10 renal = tested on: TK-10 renal
U251 glioblastoma = tested on: U251 glioblastoma
UACC-257 melanoma = tested on: UACC-257 melanoma
UACC-62 melanoma = tested on: UACC-62 melanoma

CC1=CC(=O)C=CC1=Nc1ccc(N(C)C)cc1
GI50 ([…]-0 renal): 13 µM | TGI (786-0 renal): 25.7 µM | GI50 (A498 renal): 11.4 µM | TGI (A498 renal): 23.6 µM | GI50 (A549 NSCLC): 15.3 µM | TGI (A549 NSCLC): 28.8 µM | GI50 (ACHN renal): 5.29 µM | TGI (ACHN renal): 18.7 µM | GI50 (BT-549 breast): 6.14 µM | TGI (BT-549 breast): 18.6 µM | GI50 (CAKI-1 renal): 8.66 µM | TGI (CAKI-1 renal): 20.8 µM | GI50 (CCRF-CEM leukemia): 1430 nM | TGI (CCRF-CEM leukemia): 2770 nM | GI50 (COLO 205 colon): 2920 nM | TGI (COLO 205 colon): 7.43 µM | GI50 (DU-145 prostate): 14 µM | TGI (DU-145 prostate): 27 µM | GI50 (EKVX NSCLC): 11.3 µM | TGI (EKVX NSCLC): 23.5 µM | GI50 (HCC-2998 colon): 5.21 µM | TGI (HCC-2998 colon): 20.1 µM | GI50 (HCT-116 colon): 2670 nM | TGI (HCT-116 colon): 8.2 µM | GI50 (HCT-15 colon): 11.4 µM | TGI (HCT-15 colon): 23.6 µM | GI50 (HL-60(TB) leukemia): 1330 nM | TGI (HL-60(TB) leukemia): 2620 nM | GI50 (HOP-62 NSCLC): 3.92 µM | TGI (HOP-62 NSCLC): 9.14 µM | GI50 (HOP-92 NSCLC): 2650 nM | TGI (HOP-92 NSCLC): 6.19 µM | GI50 (HS 578T breast): 12.3 µM | TGI (HS 578T breast): 24.8 µM | GI50 (HT29 colon): 14.4 µM | TGI (HT29 colon): 27.7 µM | GI50 (IGROV1 ovarian): 12.1 µM | TGI (IGROV1 ovarian): 24.5 µM | GI50 (K-562 leukemia): 12.1 µM | TGI (K-562 leukemia): 24.5 µM | GI50 (KM12 colon): 12.6 µM | TGI (KM12 colon): 25.3 µM | GI50 (LOX IMVI melanoma): 11.6 µM | TGI (LOX IMVI melanoma): 23.9 µM | GI50 (M14 melanoma): 12.5 µM | TGI (M14 melanoma): 25 µM | GI50 (MALME-3M melanoma): 15.3 µM | TGI (MALME-3M melanoma): 28.6 µM | GI50 (MCF7 breast): 3.46 µM | TGI (MCF7 breast): 13.3 µM | GI50 (MDA-MB-435 melanoma): 2520 nM | TGI (MDA-MB-435 melanoma): 6.2 µM | GI50 (MDA-MB-468 breast): 361 nM | TGI (MDA-MB-468 breast): 1340 nM | GI50 (MOLT-4 leukemia): 1380 nM | TGI (MOLT-4 leukemia): 2680 nM | GI50 (NCI-H226 lung): 8.38 µM | TGI (NCI-H226 lung): 20.6 µM | GI50 (NCI-H23 lung): 4.94 µM | TGI (NCI-H23 lung): 18 µM | GI50 (NCI-H322M lung): 17.6 µM | TGI (NCI-H322M lung): 31.5 µM | GI50 (NCI-H460 NSCLC): 16.4 µM | TGI (NCI-H460 NSCLC): 30.2 µM | GI50 (NCI-H522 lung): 2210 nM | TGI (NCI-H522 lung): 10.4 µM | GI50 (NCI/ADR-RES ovarian): 6.51 µM | TGI (NCI/ADR-RES ovarian): 19.2 µM | GI50 (OVCAR-3 ovarian): 1600 nM | TGI (OVCAR-3 ovarian): 3.06 µM | GI50 (OVCAR-4 ovarian): 2580 nM | TGI (OVCAR-4 ovarian): 12.4 µM | GI50 (OVCAR-8 ovarian): 3.49 µM | TGI (OVCAR-8 ovarian): 9.79 µM | GI50 (PC-3 prostate): 3.22 µM | TGI (PC-3 prostate): 10.4 µM | GI50 (RPMI-8226 leukemia): 1760 nM | TGI (RPMI-8226 leukemia): 3.19 µM | GI50 (RXF 393 renal): 4.87 µM | TGI (RXF 393 renal): 16.6 µM | GI50 (SF-268 CNS): 16.5 µM | TGI (SF-268 CNS): 30.1 µM | GI50 (SF-295 CNS): 15.3 µM | TGI (SF-295 CNS): 28.7 µM | GI50 (SF-539 CNS): 10.1 µM | TGI (SF-539 CNS): 21.7 µM | GI50 (SK-MEL-2 melanoma): 1770 nM | TGI (SK-MEL-2 melanoma): 3.26 µM | GI50 (SK-MEL-28 melanoma): 15.6 µM | TGI (SK-MEL-28 melanoma): 29 µM | GI50 (SK-MEL-5 melanoma): 6.37 µM | TGI (SK-MEL-5 melanoma): 19.9 µM | GI50 (SK-OV-3 ovarian): 15.5 µM | TGI (SK-OV-3 ovarian): 29 µM | GI50 (SN12C renal): 11.6 µM | TGI (SN12C renal): 23.9 µM | GI50 (SNB-19 CNS): 15.3 µM | TGI (SNB-19 CNS): 28.7 µM | GI50 (SNB-75 CNS): 17.4 µM | TGI (SNB-75 CNS): 31.2 µM | GI50 (SW-620 colon): 13.4 µM | TGI (SW-620 colon): 26.4 µM | GI50 (TK-10 renal): 10.7 µM | TGI (TK-10 renal): 22.6 µM | GI50 (U251 glioblastoma): 10.4 µM | TGI (U251 glioblastoma): 22.2 µM | GI50 (UACC-257 melanoma): 6.22 µM | TGI (UACC-257 melanoma): 18.4 µM | GI50 (UACC-62 melanoma): 1830 nM | TGI (UACC-62 melanoma): 3.92 µM
